Test results reported in ChEMBL document CHEMBL3351303, “Discovery of Imigliptin, a Novel Selective DPP-4 Inhibitor for the Treatment of Type 2 Diabetes” (ACS Med Chem Lett, 2014).

Assays:
[1] = biological target: Dipeptidyl peptidase 9 (Homo sapiens, UniProt Q86TI2); experiment: Inhibition of human recombinant DPP9 pre-incubated with compound for 15 mins before substrate addition by luminescence assay
[2] = AUClast in rat at 8 mg/kg, po; type: ADME, organism-based; parameters: time 0 - last, dose 8 mg/kg, route oral; conditions: plasma
[3] = Cmax in rat at 8 mg/kg, po; type: ADME, organism-based; parameters: dose 8 mg/kg, route oral; conditions: in vivo
[4] = Clearance in rat at 4 mg/kg, iv; type: ADME, organism-based; parameters: dose 4 mg/kg, route intravenous; conditions: in vivo
[5] = Oral bioavailability in rat at 8 mg/kg; type: ADME, organism-based; conditions: in vivo
[6] = Half life in rat at 4 mg/kg, iv; type: ADME, organism-based; parameters: dose 4 mg/kg, route intravenous; conditions: in vivo
[7] = biological target: Dipeptidyl peptidase 8 (Homo sapiens, UniProt Q6V1X1); experiment: Inhibition of human recombinant DPP8 pre-incubated with compound for 15 mins before substrate addition by luminescence assay
Dipeptidyl peptidase 8, sequence (Q6V1X1 whole entry): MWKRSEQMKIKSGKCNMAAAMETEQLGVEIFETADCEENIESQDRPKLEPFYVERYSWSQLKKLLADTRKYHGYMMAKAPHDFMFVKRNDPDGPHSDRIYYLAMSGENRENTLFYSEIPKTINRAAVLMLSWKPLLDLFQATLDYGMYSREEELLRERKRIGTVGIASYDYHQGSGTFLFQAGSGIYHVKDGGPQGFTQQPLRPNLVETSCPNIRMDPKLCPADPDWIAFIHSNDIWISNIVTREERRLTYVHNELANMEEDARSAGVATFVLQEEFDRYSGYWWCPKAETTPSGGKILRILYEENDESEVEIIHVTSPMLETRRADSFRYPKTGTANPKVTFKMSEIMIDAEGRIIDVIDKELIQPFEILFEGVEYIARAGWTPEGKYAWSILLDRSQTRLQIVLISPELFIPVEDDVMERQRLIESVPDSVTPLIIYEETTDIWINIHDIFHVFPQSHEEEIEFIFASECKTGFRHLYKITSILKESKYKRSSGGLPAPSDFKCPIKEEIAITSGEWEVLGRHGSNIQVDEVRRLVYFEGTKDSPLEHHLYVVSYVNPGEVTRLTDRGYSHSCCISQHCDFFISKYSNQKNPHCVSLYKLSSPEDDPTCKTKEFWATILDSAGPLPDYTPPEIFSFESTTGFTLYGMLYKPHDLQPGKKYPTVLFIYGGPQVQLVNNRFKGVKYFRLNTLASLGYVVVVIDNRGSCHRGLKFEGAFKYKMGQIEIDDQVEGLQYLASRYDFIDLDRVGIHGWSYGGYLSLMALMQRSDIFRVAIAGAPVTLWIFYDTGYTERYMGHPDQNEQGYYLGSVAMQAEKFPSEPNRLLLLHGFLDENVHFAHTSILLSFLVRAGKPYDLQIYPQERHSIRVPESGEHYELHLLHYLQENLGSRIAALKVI

[8] = Volume of distribution at steady state in rat at 4 mg/kg, iv; type: ADME, organism-based; parameters: dose 4 mg/kg, route intravenous; conditions: in vivo, read-out: Vdss
[9] = Half life in rat at 8 mg/kg, po; type: ADME, organism-based; parameters: dose 8 mg/kg, route oral; conditions: in vivo

Dipeptidyl peptidase 9, sequence (Q86TI2 whole entry): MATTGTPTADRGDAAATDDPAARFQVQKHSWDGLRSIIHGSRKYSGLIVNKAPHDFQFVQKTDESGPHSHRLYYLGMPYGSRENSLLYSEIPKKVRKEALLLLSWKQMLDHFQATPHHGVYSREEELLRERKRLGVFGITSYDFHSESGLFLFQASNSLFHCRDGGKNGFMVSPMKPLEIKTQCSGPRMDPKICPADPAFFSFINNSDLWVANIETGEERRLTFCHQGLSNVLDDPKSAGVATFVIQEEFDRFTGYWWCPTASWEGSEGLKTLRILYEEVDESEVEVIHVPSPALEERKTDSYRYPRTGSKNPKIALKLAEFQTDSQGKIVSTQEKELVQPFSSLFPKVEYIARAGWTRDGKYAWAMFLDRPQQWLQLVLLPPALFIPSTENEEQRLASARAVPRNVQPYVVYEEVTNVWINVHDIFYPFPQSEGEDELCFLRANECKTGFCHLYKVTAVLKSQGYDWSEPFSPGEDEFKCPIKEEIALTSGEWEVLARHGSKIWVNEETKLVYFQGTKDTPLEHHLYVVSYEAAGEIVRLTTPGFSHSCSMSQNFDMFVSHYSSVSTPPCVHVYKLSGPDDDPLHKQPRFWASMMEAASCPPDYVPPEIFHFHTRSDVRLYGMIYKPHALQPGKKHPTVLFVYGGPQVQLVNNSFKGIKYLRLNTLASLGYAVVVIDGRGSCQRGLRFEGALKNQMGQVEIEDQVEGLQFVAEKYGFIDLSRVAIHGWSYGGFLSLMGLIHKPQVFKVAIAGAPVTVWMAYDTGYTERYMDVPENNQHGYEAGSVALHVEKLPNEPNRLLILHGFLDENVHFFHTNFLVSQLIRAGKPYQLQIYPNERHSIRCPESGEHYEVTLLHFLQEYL

IC50 [1]: > 100 µM
AUC(0-t) [2]: 249 ng·h/mL
Cmax [3]: 86 ng/mL
clearance [4]: 61.2 mL/min/kg
bioavailability [5]: 12%
half-life [6]: 0.8 h
IC50 [7]: > 100 µM
Vd [8]: 2.78 L/kg
half-life [9]: 1.5 h
SMILES: Cn1c(=O)n(Cc2ccccc2C#N)c2c(N3CCC[C@@H](N)C3)ncnc21
